Assay results from patent US20040086942A1, “Ige receptor antagonists” (priority 2003, published 2004).
Entries after “also recorded” stand apart in the source; their conditions may differ. Read-outs that look alike come from different tables or passages of the source. Blank lines part the entries; values can stand above or below the compound they belong to. Where a SMILES comes first, the peptide text is derived from it. Bridges are numbered along the chain shown (N, C = ends). Where no end group is shown, it is not given here.

Assays:
[1] = solubility in assay/binding buffer; type: physicochemical; details: assay buffer of the IgE binding inhibition assay
[2] = molecular target: T1, RBL-48 cells (Homo sapiens, UniProt P12319); test: histamine release assay: induction of histamine release by peptide; details: peptide 0.5 mM on RBL-48 cells
T1 sequence (P12319 26-257): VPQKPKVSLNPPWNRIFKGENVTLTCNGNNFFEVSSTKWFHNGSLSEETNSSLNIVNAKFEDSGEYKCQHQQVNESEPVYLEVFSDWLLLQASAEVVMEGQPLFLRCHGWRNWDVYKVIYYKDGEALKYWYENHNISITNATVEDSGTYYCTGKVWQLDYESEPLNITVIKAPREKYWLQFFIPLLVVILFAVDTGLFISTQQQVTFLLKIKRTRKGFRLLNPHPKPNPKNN
Experimental: Peptides were assayed in a histamine release assay (Lowe et al., (1995) J. Immunol. Methods, 184:113-122) to determine: (1) if the peptides could trigger histamine release and (2) if the peptides could prevent histamine release in the presence of ragweed and ragweed specific IgE. Rat basophil cell line RBL-48, which expresses the human FcεRI alpha subunit was cultured overnight in Falcon 96 flat well microtiter dishes. The cells were washed three times with growth media and then incubated in Iscove's MEM medium containing 10% fetal bovine serum and 3 USP units per milliliter of heparin (histamine assay buffer).

[3] = molecular target: T2, alpha subunit of the human FcεRI receptor (Homo sapiens, UniProt P12319); test: cell-based 125I-IgE binding inhibition assay on CHO FcεRI+ cells
T2 construct: expressed in transfected cells; host or cells: Chinese hamster ovary (CHO FcεRI+) cells
T2 sequence (P12319 26-257): T1 sequence (P12319 26-257)
In short: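 Peptides, serially diluted 1:3 from 50-500 uM, preincubated 1 h at room temperature on CHO cells expressing human FcεRI alpha, then 1.5 nM 125I-IgE added for 45-60 min at 4 °C. Buffer F12/DMEM, 1% BSA, 0.05% NaN3, pH 7.2. Bound counts by gamma counting; IC50 from 4-parameter fits.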

[4] = 2D NMR structural score versus reference peptide; type: physicochemical; parameters: key to Structure Score: +++, peptide structurally similar to reference; +, structurally similar to reference but significantly less stable; +/−, peptide has some elements of stable structure, but the conformation differs from the reference structure; −, peptide is predominantly unstructured; *peptide IGE037 (SEQ ID NO:128) was initially unstructured (monomeric form), but became structured after spontaneous dimer formation; details: reference IGE134
In short: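 Backbone ¹H resonances assigned by 2D NMR and ³JHN-Hα coupling constants measured against a reference peptide. Structure scored similar when chemical shifts, coupling constants and NOEs are consistent with the reference structure.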

[5] = molecular target: T3, FcεRI (Homo sapiens, UniProt P12319); test: competitive phage ELISA on baculovirus-derived FcεRI; type: binding; details: compared with the parent
T3 construct: human FcεRI(aa 1-176) was expressed using a baculovirus secretion expression system; host or cells: Hi-5 insect cells infected with baculovirus (virus produced in Sf9; transfer vector pAcGP67)
T3 sequence (P12319 26-201): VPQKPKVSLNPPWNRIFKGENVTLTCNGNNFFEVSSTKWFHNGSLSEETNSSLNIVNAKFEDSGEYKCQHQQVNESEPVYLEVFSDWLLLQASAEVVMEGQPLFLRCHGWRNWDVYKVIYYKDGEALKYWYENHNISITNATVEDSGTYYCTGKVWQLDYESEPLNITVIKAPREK
Excerpt: The extracellular domain of the alpha subunit of the human FcεRI(aa 1-176) was expressed using a baculovirus secretion expression system (Pharminten). cDNA encoding this domain was obtained through PCR of a plasmid containing a full length clone. The DNA fragment was ligated into baculovirus tranfer vector pAcGP67 and along with BaculoGold linearized baculovirus DNA was transfected into Sf9 cells Spodoptera frugiperda insect cells for baculovirus production (Pharmingen). Soluble FcεRI was affinity purified from the growth media of baculovirus infected Hi-5 insect cells (Expression Systems).
Phage ELISA assays were carried out as described (Lowman, 1998, supra), using Nunc Maxisorp™ plates coated with a 2 μg/mL solution of baculovirus-derived FcεRI. Peptide-phage were pre-incubated for 5-10 min with serial dilutions of receptor, then added to the receptor-coated plate. After incubation for 1 h at room temperature, the plates were washed and an anti-phage HRP-conjugated antibody (Pharmacia) was added. After further incubation for 20 min, plates were again washed and developed using the substrate OPD (Sigma). Optical density at 492 nm was read and plotted as a function of FcεRI concentration to determine an IC50 of inhibition by each peptide-phage variant.
A phage-based alanine scanning approach was used to map the FcεRI binding determinants of IGE134 (SEQ ID NOS:155, 171), as described above for IGE120 (SEQ ID NO:131, 159). […] Additionally, combinations of Ala mutations, deletions, and other substitutions were tested.

[6] = molecular target: T4, FcεRIα (Homo sapiens, UniProt P12319); test: surface plasmon resonance biosensor direct-binding assay
T4 construct: human FcεRI(aa 1-176) was expressed using a baculovirus secretion expression system; host or cells: Hi-5 insect cells infected with baculovirus (virus produced in Sf9; transfer vector pAcGP67)
T4 sequence (P12319 26-201): T3 sequence (P12319 26-201)
Experimental: Several peptides were also tested in a direct-binding assay using a surface plasmon resonance biosensor (Lofas & Johnsson, J. Chem. Soc. Commun. 21, 1526-1528 (1990)). FcεRIα, produced in baculovirus infected insect cells, was immobilized by the surface thiol method (BIAcore Methods Manual Supplement 5a, BIAcore, Inc., Piscataway, N.J.). Briefly, receptor was reacted with 2-(2pyridinyldithio)ethaneamine hydrochloride (PDEA; Natake & Swaisgood, J. Biochem. 74, 77-86 (1973)), desalted into 10 mM sodium acetate (pH 4.8) and stored in aliquots at −80″C. Thawed PDEA-receptor was injected over carboxymethyl-dextran (B1 or CM5, BIAcore, Inc.) biosensor chips preactivated with N-ethyl-N′-(3-dimethylaminopropyl)-carbodiimide hydrochloride (EDC) and N-hydroxysuccinimide (NHS), cystamine, and DTT. Following coupling, reactive groups on the chip were quenched with […] and ethanolarine. Serial dilutions of peptide in running buffer (phosphate-buffered saline containing 0.05% Tween-20, 0.01% sodium azide) were injected over the immobilized receptor, and the net amount of peptide bound at steady-state was measured as the net change in response (RU) at a point just prior to termination of peptide injection, compared to a running-buffer baseline. Binding affinities (Table 10) are reported as the midpoint (EC50) of a 4-parameter fit to the peptide saturation curve.

[7] = disulfide reshuffling of monomer peptide to homodimer in solution; type: physicochemical; details: in water or buffer at neutral pH
Excerpt: This change occurs slowly, over a 3-12 day period following the solubilization of the peptide in water or buffer at neutral pH. […] Additional support for the occurrence of a change came from NMR data detecting a change in the one-dimensional NMR spectrum. Also HPLC reverse phase data indicated a change in retention time that correlated with the activity and the conversion of a monomer to a dimer. Final confirmation of the formation of an active dimer followed the syntheses of both parallel (IGE088, SEQ ID NO:128, 128) and anti-parallel (IGE089, SEQ ID NOS:128, 157) […] disulfide-linked dimer peptides. Both peptide forms were assayed for activity in inhibiting I^125-IgE binding to cell surface expressed FcεRI.

solubility in the assay/binding buffer [1]: not soluble; also recorded: insoluble
Compound: CSCC[C@H](NC(=O)[C@@H]1CSSC[C@H](NC(=O)[C@@H](NC(=O)[C@H](C)NC(=O)[C@H](CCC(=O)O)NC(=O)[C@H](C)N)[C@@H](C)O)C(=O)N[C@@H]([C@@H](C)O)C(=O)N[C@@H](CCC(=O)O)C(=O)NCC(=O)N2CCC[C@H]2C(=O)N[C@@H](Cc2c[nH]c3ccccc23)C(=O)NCC(=O)N[C@@H](Cc2c[nH]c3ccccc23)C(=O)N[C@@H](C(C)C)C(=O)N1)C(=O)N[C@@H](C)C(=O)N[C@@H](C)C(=O)N[C@@H](CC(=O)O)C(=O)O [AEATCTEGPWGWVCMAAD] (H-AEATCTEGPWGWVCMAAD-OH; disulfide 5-14)

Compound: PRCTEGPWGWVCM (disulfide 3-12 (inferred); not fully specified (C-terminus))
levels of histamine released [2]: equivalent to that of the negative control

Compound: CC(C)C[C@@H]1NC(=O)[C@H](CCC(=O)O)NC(=O)[C@H](Cc2ccc(O)cc2)NC(=O)[C@@H]2CSSC[C@H](NC(=O)[C@H](CC(C)C)NC(=O)[C@H](CCC(=O)O)NC(=O)[C@H](Cc3ccc(O)cc3)NC(=O)[C@H](CC(=O)O)NC1=O)C(=O)N1CCC[C@H]1C(=O)N[C@@H](CC(=O)O)C(=O)N[C@@H](C(C)C)C(=O)N[C@H](C(=O)N[C@@H](Cc1ccc(O)cc1)C(=O)N[C@H](C(N)=O)C(C)C)CSSC[C@H](NC(=O)[C@H](CCC(N)=O)NC(=O)[C@@H](N)C(C)C)C(=O)N1CCC[C@H]1C(=O)N[C@@H](Cc1c[nH]cn1)C(=O)N[C@@H](Cc1ccccc1)C(=O)N2 [IGE134] (H-VQCPHFCYELDYELCPDVCYV-NH2; disulfide 3-19, 7-15; N-terminus assumed)
IC50 ([3]; average IC50, inhibition assay (Table 9)): 0.032 µM
Structure Score [4]: +++
relative binding affinity (in words) [5]: improved affinity over IGE122
Kd [6]: 0.032 µM

IC50 ([3]; IGE037: initially, read-out: IC50): ~300 µM
period of conversion of monomer to disulfide linked homodimer [7]: 3 to 12 days
Structure Score [4]: +++*
Compound: CC(C)C[C@H](NC(=O)[C@H](C)N)C(=O)N[C@H]1CSSC[C@@H](C(=O)N[C@@H](Cc2ccc(O)cc2)C(=O)N[C@H](C(N)=O)C(C)C)NC(=O)[C@H](C(C)C)NC(=O)[C@H](C)NC(=O)[C@@H]2CCCN2C1=O [IGE037, ALCPAVCYV-nh2] (H-ALCPAVCYV-NH2; disulfide 3-7; N-terminus assumed)
